{"source": "patent US12673009B2", "about": "“Dental material” (King's College London, priority 2020, dated 2026)", "origin": "cited, not measured here", "key": {"[1]": {"conditions": "Tylkowski et al., 2013"}}, "data": [{"smiles": "[Li]", "note": "[lithium]", "values": [{"measurement": "lithium concentration reported to be toxic", "setting": "[1]", "result": "~700", "unit": "ppm"}, {"measurement": "safe therapeutic range of blood levels for patients on lithium therapies", "result": "4.2-8.3 ppm"}]}]}
